Measurements published in patent US20250151722A1 (priority 2022, published 2025).
Where “and” joins values, the source holds several entries; their conditions need not be identical. Identical values can stand only once. Entries after “also recorded” stand apart in the source; their conditions may differ. Like-named read-outs stand apart in the source and are kept apart here.

Assays:
[1] = tested on: A. flavus IFM47798 strain; type: cell-based, Aspergillus flavus; conditions: for Total AF Relative Value (%): 48 h, 28° C., untreated control = 100, mean ± SD, n = 4
[2] = tested on: A. flavus IFM47798 strain; test: Fungal growth (dry fungal weight) in liquid culture, Test Example 1; type: cell-based, Aspergillus flavus
[3] = tested on: A. flavus MAFF111229 strain; type: cell-based, Aspergillus flavus
[4] = tested on: A. flavus MAFF111229 strain
[5] = tested on: A. parasiticus NRRL2999 strain
[6] = tested on: A. flavus MAFF111229 strain; type: cell-based, Aspergillus flavus; conditions: untreated control = 100, mean ± SD, n = 4
[7] = tested on: A. parasiticus NRRL2999 strain; type: cell-based, Aspergillus parasiticus
[8] = alcohol 0.3 v/v %, 48 h, 28° C., untreated control = 100, mean ± SD, n = 4
[9] = alcohol 0.6 v/v %, 48 h, 28° C., untreated control = 100, mean ± SD, n = 4
[10] = alcohol 1 v/v %, 48 h, 28° C., untreated control = 100, mean ± SD, n = 4
[11] = alcohol 2 v/v %, 48 h, 28° C., untreated control = 100, mean ± SD, n = 4
[12] = alcohol 4 v/v %, 48 h, 28° C., untreated control = 100, mean ± SD, n = 4

| Compound | amount of aflatoxins produced [1] | Fungal Weight Relative Value (%) [2, 8] [%] | Fungal Weight Relative Value (%) [2, 9] [%] | Fungal Weight Relative Value (%) [2, 10] [%] | Fungal Weight Relative Value (%) [2, 11] [%] | Fungal Weight Relative Value (%) [2, 12] [%] | Total AF Relative Value (%) ([1]; alcohol 0.3 v/v %) | Total AF Relative Value (%) ([1]; alcohol 0.6 v/v %) | Total AF Relative Value (%) ([1]; alcohol 1 v/v %) | Total AF Relative Value (%) ([1]; alcohol 2 v/v %) | Total AF Relative Value (%) ([1]; alcohol 4 v/v %) | Fungal Weight Relative Value (%) [4] | Fungal Weight Relative Value (%) [2] | Fungal Weight Relative Value (%) [5] | other results |
| --- | --- | --- | --- | --- | --- | --- | --- | --- | --- | --- | --- | --- | --- | --- | --- |
| CC(C)O [2-Propanol] | increase the amount of aflatoxins produced; also recorded: same tendencies as in the case of ethanol | 126.2 ± 6.4 | 128.0 ± 11.6 | 103.7 ± 7.7 | 94.4 ± 8.3 | 0.0 ± 0.0 |  |  |  |  |  |  |  |  |  |
| CCO [Ethanol] | increase the amount of aflatoxins produced; also recorded: conversely increased |  |  |  |  |  | 197.1 ± 25.9 | 244.5 ± 13.2 | 222.4 ± 20.9 | 24.3 ± 10.5 | 0.0 ± 0.0 |  |  |  | aflatoxin production [1]: the aflatoxin production was accordingly inhibited; growth of A. flavus [2]: not inhibited; growth of A. flavus ([2]; concentration of 4 v/v % or higher): the growth of A. flavus was inhibited |
| CCC(C)O (stereo not drawn) [2-Butanol] |  |  |  |  |  |  |  |  |  |  |  | 56.2 ± 7.3% and 48.9 ± 8.7% | 66.1 ± 5.4% and 70.2 ± 4.2% |  | Total AF Relative Value (%) [3]: 0.0 ± 0.0 % |
| CO [Methanol] |  | 103.7 ± 3.5 | 110.1 ± 6.7 | 128.4 ± 3.0 | 145.9 ± 11.4 | 103.7 ± 3.5 | 70.6 ± 12.1 | 63.4 ± 12.7 | 0.0 ± 0.0 | 0.0 ± 0.0 | 0.0 ± 0.0 | 123.6 ± 6.8% and 123.6 ± 10.4% and 112.8 ± 10.4% and 98.0 ± 4.6% and 101.4 ± 3.5% |  | 93.3 ± 11.2% and 92.0 ± 6.9% and 100.0 ± 8.5% and 102.1 ± 1.6% and 102.9 ± 3.7% | Total AF Relative Value (%) ([3]; corn kernels sprayed with alcohol 20 μL per 1 g of kernels, 28° C., one week, positive control = 100, mean ± SD, n = 3): 1.0 ± 1.3 %; Total AF Relative Value (%) ([6]; alcohol 0.3 v/v %): 108.5 ± 5.8%; Total AF Relative Value (%) ([6]; alcohol 0.6 v/v %): 102.3 ± 5.0%; Total AF Relative Value (%) ([6]; alcohol 1 v/v %): 13.8 ± 0.8 %; Total AF Relative Value (%) ([6]; alcohol 2 v/v %): 0.0 ± 0.0 %; Total AF Relative Value (%) ([6]; alcohol 4 v/v %): 0.0 ± 0.0 %; Total AF Relative Value (%) ([7]; alcohol 0.3 v/v %, untreated control = 100, mean ± SD, n = 4): 86.3 ± 3.6 %; Total AF Relative Value (%) ([7]; alcohol 0.6 v/v %, untreated control = 100, mean ± SD, n = 4): 72.3 ± 1.9 %; Total AF Relative Value (%) ([7]; alcohol 1 v/v %, untreated control = 100, mean ± SD, n = 4): 31.1 ± 1.4 %; Total AF Relative Value (%) ([7]; alcohol 2 v/v %, untreated control = 100, mean ± SD, n = 4): 10.3 ± 1.3 %; Total AF Relative Value (%) ([7]; alcohol 4 v/v %, untreated control = 100, mean ± SD, n = 4): 3.4 ± 0.8 % |
| CCCO [1-Propanol] |  |  |  |  |  |  |  |  |  |  |  | 104.5 ± 6.5% and 103.9 ± 8.8% | 102.9 ± 12.0% and 118.1 ± 5.4% | 87.4 ± 1.8% and 86.4 ± 2.8% | Total AF Relative Value (%) [7]: 58.7 ± 9.5 % and 47.5 ± 6.5 % |
| CC(C)(C)O [2-Methyl-2-Propanol] | increase the amount of aflatoxins produced; also recorded: same tendencies as in the case of ethanol | 104.8 ± 7.9 | 101.0 ± 4.8 | 51.9 ± 15.5 | 0.0 ± 0.0 | 0.0 ± 0.0 |  |  |  |  |  |  |  |  |  |
